Columns and labels:
[1] = system: NIH/3T3 mouse embryonic fibroblast cell line; assay: MTT cytotoxicity test in NIH/3T3 cell line; assay type: cell-based; conditions: for Selectivity index: IC50 (NIH3T3)/IC50 (AChE); for IC50: Mus musculus, MTT, NIH3T3 fibroblast cells
Protocol: The IC50 values of the compounds were determined by nonlinear regression analysis, allowing the cytotoxic properties of the compounds to be interpreted. The molecules D1f and D1c were active against AChE enzymes.
For cytotoxicity tests, the NIH/3T3 mouse embryonic fibroblast cell line (ATCC® CRL-1658TM, London, UK) was employed. The supplier's recommendation served as the basis for the NIH/3T3 cells' incubation time. In each well of the 96-well plates, […] NIH/3T3 cells were planted. The MTT assay was performed in compliance with the previously mentioned standards.[29,35]

AChE enzyme = AChE enzyme (Homo sapiens, UniProt P22303); assay: biochemical; assay type: biochemical; conditions: for inhibitory activity: at concentrations of 1000 and 100 µM; for inhibition at 1000 µM: read-out: AChE% inhibition 10^−3 M; for inhibition at 100 µM: read-out: AChE% inhibition 10^−4 M; for IC50: tested at 10 to 0.001 µM
Sequence of AChE enzyme (P22303 32-614): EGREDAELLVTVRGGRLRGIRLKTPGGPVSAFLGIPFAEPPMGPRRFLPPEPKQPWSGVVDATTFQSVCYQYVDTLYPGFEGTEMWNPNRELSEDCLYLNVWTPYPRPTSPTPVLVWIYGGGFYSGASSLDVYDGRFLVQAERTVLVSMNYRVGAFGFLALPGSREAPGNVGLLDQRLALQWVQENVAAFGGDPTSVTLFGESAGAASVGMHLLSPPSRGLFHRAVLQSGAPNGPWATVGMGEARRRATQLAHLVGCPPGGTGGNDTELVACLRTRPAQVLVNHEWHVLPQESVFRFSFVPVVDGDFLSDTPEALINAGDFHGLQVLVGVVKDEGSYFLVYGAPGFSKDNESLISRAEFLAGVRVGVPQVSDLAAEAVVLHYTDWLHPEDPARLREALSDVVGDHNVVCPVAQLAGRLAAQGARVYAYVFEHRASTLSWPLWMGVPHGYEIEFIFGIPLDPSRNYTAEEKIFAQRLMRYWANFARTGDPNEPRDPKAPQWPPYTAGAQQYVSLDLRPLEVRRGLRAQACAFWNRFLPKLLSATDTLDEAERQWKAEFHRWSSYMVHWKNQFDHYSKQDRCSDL
Excerpt: (§1) The assay was completed in two steps.
(§2) The potential inhibitory effects of the obtained molecules on the AChE and BChE enzymes was examined using a variation of the Ellman method.[31,33,41–43] Distilled water from the Millipore/Milli-Q purification apparatus was utilized at every stage of the biological activity investigations during the evaluation process. In less than a week, all the solutions required for the biological investigation were meticulously prepared from scratch. A “BioTek-Precision Power (United States)” robotic pipetting system was utilized to distribute the prepared solutions and apply the test compounds and enzyme–substrate solutions to 96-well plates. The “BioTek-Synergy H1 Microplate Reader (United States)” was employed to establish and follow the enzyme protocol for spectrophotometric measurements. Solutions of the compounds were prepared at two different concentrations, 10^−3 M and 10^−4 M, using dimethylsulfoxide (DMSO) as 2% solution, and these were used in biological activity studies.

BChE enzyme = BChE enzyme (Homo sapiens, UniProt P06276); assay: biochemical; conditions: for inhibition at 1000 µM: read-out: BChE% inhibition 10^−3 M; for inhibition at 100 µM: read-out: BChE% inhibition 10^−4 M
Sequence of BChE enzyme (P06276 29-602, species assumed): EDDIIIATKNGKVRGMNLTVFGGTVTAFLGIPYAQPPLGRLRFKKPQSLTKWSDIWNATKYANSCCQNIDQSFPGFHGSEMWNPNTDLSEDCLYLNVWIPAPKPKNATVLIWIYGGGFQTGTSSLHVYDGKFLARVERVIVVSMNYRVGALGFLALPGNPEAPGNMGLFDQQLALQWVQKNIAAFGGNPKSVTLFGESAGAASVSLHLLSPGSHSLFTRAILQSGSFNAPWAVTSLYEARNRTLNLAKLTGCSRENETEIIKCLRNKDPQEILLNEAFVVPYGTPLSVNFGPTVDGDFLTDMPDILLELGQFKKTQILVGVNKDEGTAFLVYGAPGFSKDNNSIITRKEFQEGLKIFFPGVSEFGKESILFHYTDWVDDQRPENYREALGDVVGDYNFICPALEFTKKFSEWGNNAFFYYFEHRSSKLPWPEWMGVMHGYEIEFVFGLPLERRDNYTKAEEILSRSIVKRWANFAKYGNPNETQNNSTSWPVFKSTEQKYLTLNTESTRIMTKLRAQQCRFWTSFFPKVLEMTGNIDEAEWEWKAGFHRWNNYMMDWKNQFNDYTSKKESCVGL
Excerpt: as §1, §2

SMILES	Selectivity index [1]	IC50 [1] [µM]	inhibitory activity (AChE enzyme)	inhibition at 1000 µM (AChE enzyme) [%]	inhibition at 100 µM (AChE enzyme) [%]	IC50 (AChE enzyme) [µM]	IC50 (BChE enzyme) [µM]	inhibition at 1000 µM (BChE enzyme) [%]	inhibition at 100 µM (BChE enzyme) [%]
CC(=NN=c1scc(-c2ccc([N+](=O)[O-])cc2)n1C)c1ccc(N2CCCCC2)cc1 [D1c, 3-Methyl-4-(4-nitrophenyl)-2-((1-(4-(piperidin-1-yl)phenyl)ethylidene)hydrazineylidene)-2,3-dihydrothiazole]	8.310	2.41 ± 0.109	more than 50%	94.6 ± 2.35	90.3 ± 1.53	0.29 ± 0.01	> 1000	24.4 ± 0.941	21.6 ± 0.852
CC(=NN=c1scc(-c2ccc(C#N)cc2)n1C)c1ccc(N2CCCCC2)cc1 [D1f, 4-(-3-Methyl-2-((1-(4-(piperidin-1-yl)phenyl)ethylidene)hydrazineylidene)-2,3-dihydrothiazol-4-yl)benzonitrile]	85.231	3.32 ± 0.155	more than 50%	96.8 ± 2.09	91.2 ± 2.43	0.039 ± 0.001	> 1000	29 ± 1.24	17 ± 0.784
C=CCn1c(-c2ccc(F)cc2)csc1=NN=C(C)c1ccc(N2CCCCC2)cc1 [D2b, 3-Allyl-4-(4-fluorophenyl)-2-((1-(4-(piperidin-1yl)phenyl)ethylidene)hydrazineylidene)-2,3-dihydrothiazole]				47.2 ± 2.17	41.7 ± 1.96	> 1000	> 1000	38.2 ± 1.66	27.4 ± 1.25
COc1ccc(-c2csc(=NN=C(C)c3ccc(N4CCCCC4)cc3)n2C)cc1 [D1e, 4-(4-Methoxyphenyl)-3-methyl-2-((1-(4-(piperidin-1-yl)phenyl)ethylidene)hydrazineylidene)-2,3-dihydrothiazole]			more than 50%	92.6 ± 1.8	84.1 ± 2.15	0.613 ± 0.025	> 1000	27.6 ± 1.08	17.9 ± 0.71
CC(=NN=c1scc(-c2ccc(Cl)cc2)n1C)c1ccc(N2CCCCC2)cc1 [D1d, 4-(4-Chlorophenyl)-3-methyl-2-((1-(4-(piperidin-1-yl)phenyl)ethylidene)hydrazineylidene)-2,3-dihydrothiazole]				55.7 ± 2.08	29.6 ± 1.23	> 100	> 1000	23 ± 0.725	15.2 ± 0.734

Source: paper PMC12637020, “Synthesis and biological evaluation of novel hydrazone derivatives for the treatment of Alzheimer's disease” (RSC Advances, 2025)
